# Assay results from patent US10894043B2, “Pharmaceutical composition” (Kyowa Kirin Co., Ltd., priority 2016, dated 2021).
# What was measured:
# [1] = system: laser-induced choroidal neovascularization model of a rat; assay: Test Example 7: anti-angiogenic effect on laser-induced choroidal neovascularization model of rat; format: in vivo, Brown Norway rat; conditions: 14 days after laser irradiation, ocular instillation twice a day 5 μL/eye (aflibercept: intravitreal 5 μL/eye once), n=12 or 13, * p<0.05 vs vehicle
# Experimental: The mydriasis of the eyeballs of each male Brown Norway rat (n=12 or 13 for each group) was caused with mydriatic eye drops for examination. A ketamine hydrochloride/xylazine hydrochloride (7:1, v/v) mixed solution was intramuscularly administered (1 mL/kg) to the femur for general anesthesia. Then, the right eyeground was observed using a slit lamp, and 8 sites in the retina were irradiated with laser (wavelength: 532 nm, spot size: 80 μm, irradiation time: 0.05 sec, output: 120 mW) using a multicolor laser photocoagulator to prepare laser-induced choroidal neovascularization model animals.
# A vehicle of Example 1 or the nanoparticle composition of the present invention obtained in each of Examples 1 and 2 was administered twice a day by ocular instillation (5 μL/eye, 6 hr:18 hr interval) to each model animal from immediately after the laser irradiation to 14 days after the laser irradiation. […]
# A choroidal neovascular site was photographed using a confocal microscope (Nikon ECLIPSE TE 2000-U). For choroidal neovascular evaluation, an area (unit: pixel) that contained a newly formed blood vessel and was at the inner side relative to the highest raised portion was calculated using ImageJ (National Institutes of Health). […]
# [2] = system: laser-induced choroidal neovascularization model of a cynomolgus monkey; assay: Test Example 8: laser-induced choroidal neovascularization model of cynomolgus monkey, incidence of grade 4 by fluorescein fundus angiography; format: in vivo; conditions: n = 6
# Experimental: Twenty-one days before the start of drug administration, both the eyes of each animal (all cases) were irradiated with laser to prepare animal models. Drops of a mydriatic agent were placed in the animal eyes to be irradiated. After confirmation of mydriasis, a mixed solution of ketamine hydrochloride (50 mg/mL) and an aqueous xylazine solution (20 mg/mL) [7:1 (v/v)] was intramuscularly administered (0.2 mL/kg or 10 mg/kg) to each animal. An appropriate amount of a special aid for contact lens placement to the cornea (Scopisol Solution for Eye) was added dropwise to an eyepiece of a retinal laser lens. The retinal laser lens was pressure-bonded to the eyes to be irradiated, and a yellow spot was confirmed. After the confirmation of a yellow spot, 8 sites around the yellow spot excluding the central pit were irradiated with green laser (wavelength: 532 nm, irradiation spot size: 80 μm, irradiation time: 0.1 sec, output: 1000 mW) using a multicolor laser photocoagulator (MC-500, Nidek Co., Ltd.).
# According to the test configuration shown in Table 46, a vehicle, the nanoparticle composition of the present invention prepared according to Example 1, and the solution composition obtained in Comparative Example 2 were administered four times a day by ocular instillation for 35 days to the animal. Aflibercept (EYLEA(Registered Trademark) solution for intravitreal injection, Bayer Corp.) was intravitreally injected (once) to the animal.
# Ophthalmoscopic examination was carried out during the acclimatization period (day −1) and during the administration period (administration days 7, 14, 21, 28 and 34). Macroscopic examination and light reflex examination were carried out using a portable slit lamp (SL-15, Kowa Co., Ltd.). Drops of a mydriatic agent were placed in the animal eyes. After confirmation of mydriasis, ketamine hydrochloride (50 mg/mL) was intramuscularly administered (0.2 mL/kg or 10 mg/kg) to each animal. The anterior segment of the eye and the ocular media were examined using a portable slit lamp, while the eyegrounds were examined using a head-type binocular indirect ophthalmoscope (IO-aSmall Pupil, Neitz Instruments Co., Ltd.). The eyegrounds were photographed using a fundus camera (VX-10a, Kowa Co., Ltd.) in all cases.
# Fluorescein fundus angiography was carried out during the acclimatization period (day −1) and during the administration period (administration days 7, 14, 21, 28 and 34). For examination, a contrast medium (Fluorescite Intravenous Injection 500 mg, Alcon Japan Ltd.) was administered (0.1 mL/kg or 0.1 mL/s) from the cephalic vein of the forearm under mydriasis and anesthesia of the macroscopic examination and the ophthalmoscopic examination. Approximately 1, 3, and 5 minutes after the contrast medium administration, photographs were taken using a fundus camera. Choroidal neovascular grading was carried out on an irradiation spot basis. The fluorescein fundus angiographic images were observed and graded on an irradiation spot basis according to the criteria of Table 47.
# The incidences of grades 1 to 4 of each eye at each point in time of examination were each calculated according to the following expression: Incidence of grade (%)=The number of irradiation spots/8×100
substance,measurement,setting,value
Aflibercept [Aflibercept (EYLEA)],"choroidal neovascularization area, mean",[1],102931.7* pixel
same,Incidence of grade 4,"[2]; administration day 7, mean",4.2%
same,Incidence of grade 4,"[2]; administration day 14, mean",4.2%
same,Incidence of grade 4,"[2]; administration day 21, mean",4.2%
same,Incidence of grade 4,"[2]; administration day 28, mean",4.2%
same,Incidence of grade 4,"[2]; administration day 34, mean",4.2%
same,Incidence of grade 4,"[2]; day −1 (acclimatization period, before administration), mean",43.8%
